# Results: patent US10849867B2, “Methods and compositions for treating conditions associated with an abnormal inflammatory response” (First Wave Bio, Inc., priority 2015, dated 2020)
# Columns and labels:
# [1] = system: human LPMCs T cells; experiment: ΔΨm in T cells isolated from human intestine lamina propria (LPMC), TMRM with oligomycin (Example 2); format: cell-based
# Text: Objective. […] Model. Lamina propria mononuclear cells (LPMC) in the human intestine are comprised in part by T cells, which mediate physiological and pathological processes including inflammatory bowel disease. LPMCs can be isolated from human tissue biopsies. After isolation […] cells remain viable ex vivo under appropriate culture conditions for periods of time that allow ex vivo experiments. These cells can be used to investigate mechanisms that regulate their mitochondrial function and survival. They contain respiring mitochondria and as such their response to mitochondrial uncouplers such as niclosamide may be assessed. This cellular model is used in conjunction with oligomycin that blocks oxidative phosphorylation and TMRM to monitor ΔΨm as described in Example 1. Cell isolation and culture. Cells are obtained from biopsy specimens of the small or large intestine or rectum of humans from areas of normal gastrointestinal tissue or with moderate to severe Crohn's disease (CD), ulcerative colitis (UC), or celiac disease. For the isolation of lamina propria mononuclear […] specimens are initially washed in Hank's balanced salt solution (HBSS) then are cut into 0.5-cm pieces, and are incubated with stirring in pre-warmed HBSS containing 1 mM DTT at 37° C. for 15 minutes. […] The isolated cells are counted and checked for viability using 0.1% trypan blue (viability ranges from 86% to 94%). […] In addition, anti-CD3 monoclonal antibody conjugated to FITC (excitation at 494 nm with emission detected at 521 nm) is additionally added during incubation with TMRM at 37° C. for 30 minutes. […] LPMC T cells are first defined by their fluorescence emission at 521 nm resulting from labeling with FITC-anti-CD3 antibody. The n fluorescence intensity of TMRM detected at 590 nm in the T cell population is measured. Median fluorescence intensity of the TMRM signal are computed. Ratios of the median fluorescence intensity of each treated sample to the control sample mean are then calculated as a measure of relative decrease in ΔΨm. […]
# [2] = Colon concentration in mice compared with uncoupling concentration (Example 6); format: in vivo
# Method: Model. Results from Examples 2 and 5 are used together. […] This concentration is directly compared to the dose-response data to determine if efficacious exposure is sufficient to induce mitochondrial uncoupling in colon.
# Pharmacokinetic study design.
# Calculation of target coverage. The average area under the colon concentration versus time curve (AUC) and the peak concentration is calculated and is plotted and is graphed.
# [3] = system: TNBS-induced colitis; experiment: TNBS colitis in mice, niclosamide suspension administered rectally as enema (Example 9); format: in vivo, male Balb/c mice
# Text: Model: Intra-rectal administration of trinitrobenzene sulfonic acid (TNBS) to mice results in colitis. TNBS elicits cell-mediated immune responses and induces transmural inflammation in the gut with morphological and histopathological features similar to those of human inflammatory bowel disease. TNBS induces diffuse colonic inflammation, characterized by increased leukocyte infiltration, edema, and ulceration. It is very well reported that administration of TNBS is associated with predominant activation of Th1-mediated immune response manifested by increased cytokines such as interferon-γ (IFN-γ), tumor necrosis factor-α (TNF-α) and interleukin-17A (IL-17A) as well as dense infiltration of CD4+ T cells. Disease activity in the TNBS model can be determined by loss of body weight, histopathological evaluation of the colon showing evidence of inflammatory damage and evidence of pro-inflammatory cytokines detected in colon tissue. Animals and Treatments: Studies of TNBS colitis were performed in 8- to 12-week-old male Balb/c mice (Jackson Laboratories, stock number 000651). […] Weight changes were recorded daily and tissues were collected for histologic study and RNA analysis at the end of the study. […] Gene expression was calculated using the ΔΔCt algorithm.
smiles,measurement,setting,value
"O=C(Nc1ccc([N+](=O)[O-])cc1Cl)c1cc(Cl)ccc1O [Niclosamide, 5-chloro-N-(2-chloro-4-nitrophenyl)-2-hydroxybenzamide]",change in ΔΨm in human LPMCs T cells,"[1]; TMRM, oligomycin, relative to negative controls",dose-related decrease
same,concentrations of niclosamide that decrease ΔΨm (p<0.05),"[1]; human LPMCs T cells, relative to negative controls",≥ 5 µM
same,mitochondrial uncoupling in lamina propria T cell,[1]; niclosamide 5 μM,more than 50%
same,concentration in the colon,[2]; single rectal dose 1 mg/kg (below maximal efficacy),< 5 µM
same,colon peak concentration,[2]; single rectal dose 3 mg/kg (therapeutic dosage),> 5 µM
same,body weight,"[3]; rectal 30 mg/kg on days 1 and 2, TNBS-induced colitis",recovery of body weight
same,colitis score (H&E analysis of colon biopsies),"[3]; rectal 30 mg/kg on days 1 and 2, compared to vehicle control or TNBS only",significantly lower
